Measurements reported in EP1101492A1, “NOVEL REMEDIES FOR ALLERGIC DISEASES” (FUJI YAKUHIN KOGYO KABUSHIKI KAISHA, priority 1998, dated 2000).

Key:
[1] = Body weight gain in sensitized mice; format: in vivo; conditions: test compound 50 µg/ear/dose, prednisolone 5 µg/ear/dose, in ethanol painted twice a day, Days 1, 4 and 7, vs solvent control (ethanol)
Description: Experimental atopic dermatitis model mice sensitized in the same manner as in Example 1 were examined for influence on body weight gains.
Each mouse was measured for its body weight not only immediately before the start in painting but also on Days 1, 4 and 7 after the start in painting. Each gain in body weight was calculated and considered to indicate an effect on body weight changes affected by said treatments.

[2] = test system: allergic peritonitis; test: Allergic peritonitis induced with ragweed pollen extract (peritoneal exudate cells); format: in vivo, Balb/c mice; conditions: ragweed pollen extract challenge; 30 mg/kg i.p. 5 minutes prior to induction, 3, 6 and 12 hours post-induction; 24 hours after induction
Description: Each efficacy on allergic peritonitis was examined according to methods as disclosed in Ouchi et al., "Seibutsu Yakukagaku Jikken Koza, Ensho To Allergy (Inflammation and Allergy) I-3", pp.139 to 151, Hirokawa Publishing Co., Japan and Spicer et al., The International Archives of Allergy and Applied Immunology, 81: 81 to 84, 1986.
A ragweed (Ambrosia artemisiaefolia) pollen extract (1:100, Torii Pharmaceutical Co., Ltd.) was diluted 10-fold with physiological saline and administered subcutaneously to male Balb/c mice (7 weeks old, 20 to 23 g, purchased from JAPAN SLC, Inc.) on Days 0 and 1 at a single dose of 0.1 mL and further on Days 6, 8 and 14 at a single dose of 0.2 mL for sensitization. On Day 20 after the initial sensitization, an antigen solution for induction (a mixture of the aforementioned 10-fold diluted ragweed pollen extract, 50 units/mL of penicillin G potassium, and 0.05 mg/mL of streptomycin sulfate) was administered intraperitoneally to each animal at a dose of 0.2 mL to raise allergic peritonitis. […]
Twenty four hours after induction, mice were sacrificed under ether […] and each penitoneal cavity was lavaged twice or thrice with a washout medium (total volume: 5 mL, physiological saline containing 10 units/mL of heparin). […] The retrieved washout medium was measured for its yield (mL) and the number of exudate cells therein by using Turk solution and counting on a haemocytometer and a total number of PEC was calculated. […] After staining, PEC was subjected to fractional counts under a microscope with classification into eosinophils, neutrophils, lymphocytes/macrophages and basophils based on their form and stain nature (more than 500 PEC per specimen were randomly counted). […] After counting, intraperitoneal exudation inhibition rates were calculated by the following formula and expressed as the therapeutic efficacies: Inhibition Rate (%) =[1 -((PEC in Sensitized/Drug-Treated Mouse) - (PEC in Unsensitized/Saline-Treated Mouse))/((PEC in Sensitized/Saline-Treated Mouse) - (PEC in Unsensitized/Saline-Treated Mouse))]× 100 [formula]

CNC(=O)[C@H](Cc1ccc(NC(=N)N)cc1)NC(=O)[C@H](CC(C)C)C(CCCc1ccccc1)C(=O)NO (single isomer, unassigned) [Compound No. 130, N-[4-(N-Hydroxyamino)-2(R)-isobutyl-3(R or S)-(3-phenyltrimethylene)succinyl)-L-4'-guanidophenylalanine-N-methylamide 1 acetate]
gain in body weight (FIG. 10) [1]: almost equivalent to that in the solvent control group
decrease in total PEC number [2]: 143.8%
inhibition of infiltration of eosinophils into the peritoneal cavity [2]: 57.2%
inhibition of infiltration of lymphocytes/macrophages into the peritoneal cavity [2]: 219.0%
